According to US11066668B2, “Compositions and methods for modulation of IKBKAP splicing” (Ionis Pharmaceuticals, Inc., priority 2012, dated 2021):
Oligonucleotides are written 5' to 3', each unit as a sugar letter and its base; * is a phosphorothioate linkage, no mark a phosphodiester; rarer units and linkages stand in square brackets, end groups in braces. Plain capitals give the bases only. e = 2'-O-(2-methoxyethyl) (MOE); [5mC] = 5-methylcytosine

Test system: IKBKAP pre-mRNA (mt19-21 minigene)
Test: Exon 20 inclusion in HEK-293 cells harboring the mt19-21 IKBKAP minigene (RT-PCR)
Format: cell-based, human
Settings: HEK-293 with mt19-21 minigene; for effect on exon 20 inclusion/skipping, in words: 0.007 nmol oligonucleotide; for % inclusion (exon 20): 0.007 nmol oligonucleotide by electroporation, RT-PCR two days later
Description: Antisense oligonucleotides were designed targeting a human IKBKAP nucleic acid and were tested for their effects on IKBKAP pre-mRNA in vitro. Together, the overlapping antisense oligonucleotides spanned the entire 74-nucleotide region of the IKBKAP exon 20 sequence, as well as the 100-nucleotide intronic regions immediately upstream and downstream of exon 20. The antisense oligonucleotides are presented in Table 1, and were designed as uniform 2′-O-methoxyethyl ribose (MOE) oligonucleotides with phosphate backbones. Each oligonucleotide is 15 nucleosides in length. All cytosine residues throughout the oligonucleotide are 5-methylcytosines. ‘Start Site’ indicates the 5′-most nucleoside to which the oligonucleotide is targeted in the human gene sequence. “Stop site” indicates the 3′-most nucleoside to which the oligonucleotide is targeted in the human gene sequence. Each oligonucleotide listed in Table 1 is targeted to the human IKBKAP genomic sequence (the complement of GENBANK Accession No NT_008470.16 truncated from nucleotides 13290828 to Ser. No. 13/358,424, designated herein as SEQ ID NO: 1). ISIS 414161 has one mismatch with SEQ ID NO: 1.
Cultured HEK-293 cells harboring the mt19-21 minigene vector construct at a density of 7×10^5 cells per well were transfected using electroporation (Gene Pulsar II apparatus, Bio-Rad) with 0.007 nmol antisense oligonucleotide, as previously described (Hua, Y., et al., 2007. PLoS Biol 5:e73). […] These oligonucleotides served as controls for non-specific effects of uniform MOE oligonucleotides with phosphate backbones. Cells harboring the wt19-21 minigene and the mt19-21 minigene alone were also cultured and were used as controls for exon 20 inclusion levels. Two days later, cDNA synthesized from total RNA extracted from HEK-293 cells was amplified using the forward primer pCDNAF and reverse primer sequence IKAP21R4 to assay the splicing pattern of expressed RNAs by RT-PCR. To calculate exon 20 inclusion levels, the PCR amplicons were labeled with α^32P-dCTP. The PCR products were then separated by native PAGE, followed by phosphorimage analysis on a FUJIFILM FLA-5100 instrument (Fuji Medical Systems USA Inc.). The band intensities were quantified using Multi Gauge software Version 2.3 (FUJIFILM), and values were normalized for the G+C content according to the DNA sequence.
Treatment with antisense oligonucleotides targeting the 3′ and 5′ splice sites caused increased skipping of exon 20.
Additional oligonucleotides were designed targeting the first 30-nucleotide stretch of ISS-40. These oligonucleotides were designed by choosing sequences shifted in one nucleotide increments upstream and downstream (i.e., a “microwalk”) of ISS-40, starting from the +6 position in exon 20. The antisense oligonucleotides are presented in Table 2 and FIG. 4D, and were designed as uniform 2′-O-methoxyethyl ribose (MOE) oligonucleotides with phosphate backbones. Each oligonucleotide is 20 nucleosides in length. All cytosine residues throughout the oligonucleotide are 5-methylcytosines. ‘Start Site’ indicates the 5′-most nucleoside to which the oligonucleotide is targeted in the human gene sequence. “Stop site” indicates the 3′-most nucleoside to which the oligonucleotide is targeted in the human gene sequence. Each oligonucleotide listed in Table 2 is targeted to intron 20 of the human IKBKAP genomic sequence (the complement of GENBANK Accession No NT_008470.16 truncated from nucleotides 13290828 to Ser. No. 13/358,424, designated herein as SEQ ID NO: 1). These oligonucleotides were tested in vitro.
Cultured HEK-293 cells harboring the mt19-21 minigene vector construct at a density of 7×10^5 cells per well were transfected using electroporation (Gene Pulsar II apparatus, Bio-Rad) with 0.007 nmol antisense oligonucleotide, as previously described (Hua, Y., et al., 2007. PLoS Biol 5:e73). […]

Substance: ISIS 414137: uniform 2′-MOE 15-mer, phosphate backbone; TTTAAATAGCCAGGA, SEQ ID NO 16, intron 19 (eTeTeTeAeAeAeTeAeGe[5mC]e[5mC]eAeGeGeA; splice-switching)
- effect on exon 20 inclusion/skipping, in words: positive effect on exon 20 inclusion
- % inclusion (exon 20) (Table 1): 52%

Substance: ISIS 414134: uniform 2′-MOE 15-mer, phosphate backbone; TACACCATTTTACCT, SEQ ID NO 13, intron 19 (eTeAe[5mC]eAe[5mC]e[5mC]eAeTeTeTeTeAe[5mC]e[5mC]eT; splice-switching)
- % inclusion (exon 20) (Table 1): 25%

Substance: ISIS 414140: uniform 2′-MOE 15-mer, phosphate backbone; ATTAAGTAGAAAACA, SEQ ID NO 19, intron 19 (eAeTeTeAeAeGeTeAeGeAeAeAeAe[5mC]eA; splice-switching)
- % inclusion (exon 20) (Table 1): 13%

Substance: ISIS 421997: uniform 2′-MOE 20-mer, phosphate backbone; AACTAGTCGCAAACAGTACA, SEQ ID NO 66, intron 20 (eAeAe[5mC]eTeAeGeTe[5mC]eGe[5mC]eAeAeAe[5mC]eAeGeTeAe[5mC]eA; splice-switching)
- % inclusion (exon 20) (Table 2 (microwalk experiment)): 81%

Substance: ISIS 414149: uniform 2′-MOE 15-mer, phosphate backbone; CAACTTCTAAGTTTC, SEQ ID NO 28, exon 20 (e[5mC]eAeAe[5mC]eTeTe[5mC]eTeAeAeGeTeTeTe[5mC]; splice-switching)
- % inclusion (exon 20) (Table 1): 20%

Substance: ISIS 414171: uniform 2′-MOE 15-mer, phosphate backbone; AATAAAATACTTATT, SEQ ID NO 50, intron 20 (eAeAeTeAeAeAeAeTeAe[5mC]eTeTeAeTeT; splice-switching)
- % inclusion (exon 20) (Table 1): 32%

Substance: ISIS 414157: uniform 2′-MOE 15-mer, phosphate backbone; CACTTCCGAATCTGA, SEQ ID NO 36, exon 20 (e[5mC]eAe[5mC]eTeTe[5mC]e[5mC]eGeAeAeTe[5mC]eTeGeA; splice-switching)
- % inclusion (exon 20) (Table 1): 15%

Substance: ISIS 414160: uniform 2′-MOE 15-mer, phosphate backbone; TACAATGGCGCTTAC, SEQ ID NO 39, intron 20 (eTeAe[5mC]eAeAeTeGeGe[5mC]eGe[5mC]eTeTeAe[5mC]; splice-switching)
- % inclusion (exon 20) (Table 1): 14%

Substance: ISIS 421998: uniform 2′-MOE 20-mer, phosphate backbone; TAACTAGTCGCAAACAGTAC, SEQ ID NO 67, intron 20 (eTeAeAe[5mC]eTeAeGeTe[5mC]eGe[5mC]eAeAeAe[5mC]eAeGeTeAe[5mC]; splice-switching)
- % inclusion (exon 20) (Table 2 (microwalk experiment)): 81%

Substance: ISIS 414130: uniform 2′-MOE 15-mer, phosphate backbone; TTCACAGAGAATTAC, SEQ ID NO 9, intron 19 (eTeTe[5mC]eAe[5mC]eAeGeAeGeAeAeTeTeAe[5mC]; splice-switching)
- % inclusion (exon 20) (Table 1): 25%

Substance: ISIS 414164: uniform 2′-MOE 15-mer, phosphate backbone; AGCTAACTAGTCGCA, SEQ ID NO 43, intron 20 (eAeGe[5mC]eTeAeAe[5mC]eTeAeGeTe[5mC]eGe[5mC]eA; splice-switching)
- effect on exon 20 inclusion/skipping, in words: markedly increased inclusion of exon 20
- % inclusion (exon 20) (Table 1): 78%
- % inclusion (exon 20) (Table 2 (microwalk experiment)): 74%

Substance: ISIS 414177: uniform 2′-MOE 15-mer, phosphate backbone; CTTTTCATAATTTTA, SEQ ID NO 56, intron 20 (e[5mC]eTeTeTeTe[5mC]eAeTeAeAeTeTeTeTeA; splice-switching)
- % inclusion (exon 20) (Table 1): 25%

Substance: ISIS 414139: uniform 2′-MOE 15-mer, phosphate backbone; GTAGAAAACATTTAA, SEQ ID NO 18, intron 19 (eGeTeAeGeAeAeAeAe[5mC]eAeTeTeTeAeA; splice-switching)
- % inclusion (exon 20) (Table 1): 20%

Substance: ISIS 414129: uniform 2′-MOE 15-mer, phosphate backbone, 5-methylcytosines; AGAGAATTACCACAA, SEQ ID NO 8, intron 19 (eAeGeAeGeAeAeTeTeAe[5mC]e[5mC]eAe[5mC]eAeA; splice-switching)
- % inclusion (exon 20) (Table 1): 23%

Substance: ISIS 414145: uniform 2′-MOE 15-mer, phosphate backbone; ATAAATTAAAGCAGT, SEQ ID NO 24, intron 19 (eAeTeAeAeAeTeTeAeAeAeGe[5mC]eAeGeT; splice-switching)
- % inclusion (exon 20) (Table 1): 3%

Substance: ISIS 421991: uniform 2′-MOE 20-mer, phosphate backbone; TCGCAAACAGTACAATGGCG, SEQ ID NO 60, intron 20 (eTe[5mC]eGe[5mC]eAeAeAe[5mC]eAeGeTeAe[5mC]eAeAeTeGeGe[5mC]eG; splice-switching)
- % inclusion (exon 20) (Table 2 (microwalk experiment)): 91%

Substance: ISIS 414153: uniform 2′-MOE 15-mer, phosphate backbone; AACCAGGGCTCGATG, SEQ ID NO 32, exon 20 (antisense eAeAe[5mC]e[5mC]eAeGeGeGe[5mC]eTe[5mC]eGeAeTeG)
- % inclusion (exon 20) (Table 1): 5%

Substance: ISIS 414175: uniform 2′-MOE 15-mer, phosphate backbone; TTTTAAGTTCTCGAA, SEQ ID NO 54, intron 20 (eTeTeTeTeAeAeGeTeTe[5mC]eTe[5mC]eGeAeA; splice-switching)
- % inclusion (exon 20) (Table 1): 27%

Substance: ISIS 414162: uniform 2′-MOE 15-mer, phosphate backbone; TCGCAAACAGTACAA, SEQ ID NO 41, intron 20 (eTe[5mC]eGe[5mC]eAeAeAe[5mC]eAeGeTeAe[5mC]eAeA; splice-switching)
- effect on exon 20 inclusion/skipping, in words: markedly increased inclusion of exon 20
- % inclusion (exon 20) (Table 1): 79%
- % inclusion (exon 20) (Table 2 (microwalk experiment)): 82%

Substance: ISIS 421999: uniform 2′-MOE 20-mer, phosphate backbone; CTAACTAGTCGCAAACAGTA, SEQ ID NO 68, intron 20 (e[5mC]eTeAeAe[5mC]eTeAeGeTe[5mC]eGe[5mC]eAeAeAe[5mC]eAeGeTeA; splice-switching)
- % inclusion (exon 20) (Table 2 (microwalk experiment)): 82%

Substance: ISIS 414166: uniform 2′-MOE 15-mer, phosphate backbone; ATAAATCACAAGCTA, SEQ ID NO 45, intron 20 (eAeTeAeAeAeTe[5mC]eAe[5mC]eAeAeGe[5mC]eTeA; splice-switching)
- effect on exon 20 inclusion/skipping, in words: markedly increased inclusion of exon 20
- % inclusion (exon 20) (Table 1): 40%
- % inclusion (exon 20) (Table 2 (microwalk experiment)): 38%

Substance: ISIS 414131: uniform 2′-MOE 15-mer, phosphate backbone; AACTCTTCACAGAGA, SEQ ID NO 10, intron 19 (eAeAe[5mC]eTe[5mC]eTeTe[5mC]eAe[5mC]eAeGeAeGeA; splice-switching)
- % inclusion (exon 20) (Table 1): 30%

Substance: ISIS 414133: uniform 2′-MOE 15-mer, phosphate backbone; CATTTTACCTAACTC, SEQ ID NO 12, intron 19 (e[5mC]eAeTeTeTeTeAe[5mC]e[5mC]eTeAeAe[5mC]eTe[5mC]; splice-switching)
- % inclusion (exon 20) (Table 1): 25%

Substance: ISIS 414152: uniform 2′-MOE 15-mer, phosphate backbone; GGGCTCGATGATGAA, SEQ ID NO 31, exon 20 (antisense eGeGeGe[5mC]eTe[5mC]eGeAeTeGeAeTeGeAeA)
- % inclusion (exon 20) (Table 1): 3%

Substance: ISIS 421995: uniform 2′-MOE 20-mer, phosphate backbone; CTAGTCGCAAACAGTACAAT, SEQ ID NO 64, intron 20 (e[5mC]eTeAeGeTe[5mC]eGe[5mC]eAeAeAe[5mC]eAeGeTeAe[5mC]eAeAeT; splice-switching)
- % inclusion (exon 20) (Table 2 (microwalk experiment)): 92%
